{
  "source": "patent US10315992B2",
  "about": "“Tetracyline compounds” (Tetraphase Pharmaceuticals, Inc., priority 2012, dated 2019)",
  "system": "Burkholderia cenocepacia BC240 (cystic fibrosis isolate, MDR)",
  "experiment": "MIC assay, BC240",
  "assay_type": "cell-based",
  "conditions": "for MIC BC 240: B. cenocepacia MDR; for MIC: Burkholderia cenocepacia",
  "note": "Like-named read-outs stand apart in the source and are kept apart here.",
  "data": [
    {"smiles": "CN(C)c1cc(NC(=O)CNC(C)(C)C)c(O)c2c1C[C@H]1C[C@H]3[C@H](N(C)C)C(O)=C(C(N)=O)C(=O)[C@@]3(O)C(O)=C1C2=O", "note": "[Tigecycline, tigecycline]", "values": [
      {"measurement": "MIC BC 240", "setting": "Table 5", "value": 16, "unit": "µg/mL"},
      {"measurement": "MIC BC 240", "setting": "Table 7", "value": 16, "unit": "µg/mL"},
      {"measurement": "MIC", "value": 16, "unit": "µg/mL"},
      {"measurement": "MIC", "setting": "read-out: MIC BC 240", "value": 16, "unit": "µg/mL"}
    ]},
    {"smiles": "CN(C)[C@@H]1C(O)=C(C(N)=O)C(=O)[C@@]2(O)C(O)=C3C(=O)c4c(O)cccc4C[C@H]3C[C@@H]12", "note": "[Sancycline, sancycline]", "values": [
      {"measurement": "MIC BC 240", "setting": "Table 5", "value": 4, "unit": "µg/mL"},
      {"measurement": "MIC BC 240", "setting": "Table 7", "value": 4, "unit": "µg/mL"},
      {"measurement": "MIC", "value": 4, "unit": "µg/mL"},
      {"measurement": "MIC", "setting": "read-out: MIC BC 240", "value": 4, "unit": "µg/mL"}
    ]}
  ]
}
